# ± gives the expanded uncertainty stated by the source.
# Details: 101.33 kPa, Liquid; for viscosity: Capillary tube (Ostwald / Ubbelohde) method; for mass density: Pycnometric method
viscosity (298.15 K),mass density (298.15 K),viscosity (308.15 K),mass density (308.15 K),viscosity (318.15 K),mass density (318.15 K),Structure (SMILES)
1.223 ± 0.05 mPa·s,960.2 ± 0.6 kg/m3,0.982 ± 0.04 mPa·s,953.4 ± 0.8 kg/m3,0.823 ± 0.034 mPa·s,942.5 ± 0.9 kg/m3,CCOc1ccccc1 [ethoxybenzene]
0.989 ± 0.04 mPa·s,988.9 ± 0.8 kg/m3,0.906 ± 0.037 mPa·s,979.5 ± 0.8 kg/m3,0.84 ± 0.034 mPa·s,970.5 ± 0.8 kg/m3,COc1ccccc1 [anisole]

# From the NIST ThermoML archive (doi:10.1016/j.jct.2013.12.008)
